The numbers were not newly measured in US20260041939A1, “METHODS FOR THE TREATMENT OF HY[…] TRANSCRANIAL-FOCUSED-ULTRASOUND” (SUNNYBROOK RESEARCH INSTITUTE, priority 2022, published 2026), which cites them from elsewhere.

Each structure is given as a SMILES string.

The data set concerns c-FOS expression. The following applies: microinjection into the tuberomammillary nucleus of rats.

Regarding `CCCC(C)C1(CC)C(=O)NC(=O)NC1=O` (stereo not drawn) [Pentobarbital, pentobarbital], the “c-FOS expression in the locus coeruleus” value is “unchanged”, the “c-FOS expression in the tuberomammillary nucleus” value is given as “suppress” and the “c-FOS expression in the ventrolateral preoptic nucleus (VLPO)” value is “increase”.
